Test results as given in EP0714604A1, “A composition having insecticidal and acaricidal properties” (MITSUI TOATSU CHEMICALS, INCORPORATED, priority 1994, dated 1996).

Assays:
Type in all cases: in vivo
[1] = tested on: sensitive strain of the Kanzawa spider mite; experiment: Test 1: effect on a sensitive strain of the Kanzawa spider mite (leaf section spray, LC50); details: eggs on kidney bean leaf sections sprayed, 25°C, eleven days after the treatment
Description: (§1) About 2 cm square sections of kidney bean leaves were placed on wetted absorbent cotton. Then, 7 female adults of the Kanzawa spider mite were inoculated on each leaf section and allowed to deposit eggs. After 24 hours, the adult mites were removed, 4 ml each of various dilutions of 10% Anniverse Emulsion (Compound No.1), 0.6% Avermectin Emulsion or a mixture thereof were sprayed by means of a tower sprayer, and the leaf sections were maintained in a thermostatic chamber kept at 25°C. Eleven days after the treatment, the numbers of surviving mites, dead mites, unhatched eggs and escaping mites were examined. Thus, the survival rates at various concentrations were calculated and the LC₅₀ value (in ppm) was determined therefrom.
In order to evaluate the synergistic effect of the compound of the general formula (1) and the macrolide compound, the combined toxicity index was calculated from the LC₅₀ values of the respective compounds according to the equation of Y.P. Sun et al. (J. Econ. Ent., 53(5), 887, 1960).
The equation of Y.P. Sun et al. for calculating the combined toxicity index is more fully explained below. […]

[2] = tested on: resistant strain of the Kanzawa spider mite; experiment: Test 2: effect on a resistant strain of the Kanzawa spider mite (leaf section spray, LC50); details: eggs on kidney bean leaf sections sprayed, 25°C, eleven days after the treatment
Description: as §1, with “No.1), 20% Trebon Emulsion (Compound No.2),” for “No.1),”
(§2) In order to evaluate the synergistic effect of each compound of the general formula (1) and the macrolide compound, the combined toxicity index was calculated from the LC₅₀ values of the respective compounds in the same manner as in Test 1.

[3] = tested on: resistant strain of the Kanzawa spider mite; experiment: Test 3: effect on a resistant strain of the Kanzawa spider mite, Milbenock Emulsion as macrolide (LC50); details: 1% Milbenock Emulsion as macrolide, eleven days after the treatment
Description: A test was carried out in the same manner as in Test 1, except that, in place of 0.6% Avermectin Emulsion, 1% Milbenock Emulsion was used as the macrolide compound.

[4] = tested on: resistant strain of the citrus red mite; experiment: Test 4: effect on a resistant strain of the citrus red mite (leaf section spray, LC50); details: eggs on mandarin tree leaf sections sprayed, 25°C, eleven days after the treatment
Description: as §1, with “mandarin tree” for “kidney bean”, “citrus red” for “Kanzawa spider”

Kanzawa spider mite = experiment: Test 5: effect on the Kanzawa spider mite living on potted kidney bean plants (mite counts); details: Compound No.1 25 ppm, 51 before treatment
Excerpt: Potted kidney bean plants in the first true leaf stage were inoculated with female adults of the Kanzawa spider mite and allowed to stand in a greenhouse for about a week. After leaves infested with Kanzawa spider mites were marked, the kidney bean plants were sprayed with a diluted fluid of 10% Anniverse Emulsion (Compound No.1), a macrolide compound (i.e., 0.6% Avermectin Emulsion or 1% Milbenock Emulsion) or a mixture thereof to such an extent that the fluid dripped from their leaves. The number of Kanzawa spider mites living on the marked leaves was counted 2, 7, 12, 16 and 27 days after the treatment.

[5] = tested on: resistant strain of the greenhouse whitefly; experiment: Test 6: effect on a resistant strain of the greenhouse whitefly (eggs on leaf sections, LC50); details: one-day-old eggs on kidney bean leaf sections sprayed, 25°C, twelve days after the treatment
Description: About 2 cm square sections of kidney bean leaves on which one-day-old eggs of the greenhouse whitefly had been deposited were placed on wetted absorbent cotton, sprayed with 4 ml each of various dilutions of 10% Anniverse Emulsion (Compound No.1), 0.6% Avermectin Emulsion or a mixture thereof by means of a tower sprayer, and maintained in a thermostatic chamber kept at 25°C. Twelve days after the treatment, the numbers of surviving insects, dead insects, unhatched eggs and escaping insects were examined. Thus, the survival rates at various concentrations were calculated and the LC₅₀ value (in ppm) was determined therefrom.

green peach aphid = experiment: Test 7: effect on the green peach aphid living on eggplants (population density); details: Compound No.1 25 ppm, before treatment = 100
Description: After leaves naturally infested with green peach aphids were marked, eggplants were sprayed with a diluted fluid of 10% Anniverse Emulsion (Compound No.1), 0.6% Avermectin Emulsion or a mixture thereof to such an extent that the fluid dripped from their leaves. The number of green peach aphids living on the marked leaves was counted 2, 7, 14, 21 and 28 days after the treatment, and the corrected population density index was calculated according to the equation given below. Corrected population density index =((Number of insects after treatment in treated division)/(Number of insects before treatment in treated division))/((Number of insects after treatment in untreated division)/(Number of insects before treatment in untreated division))x 100 [formula]

[6] = tested on: second-instar larvae of the diamond-back moth; experiment: Test 8: effect on the diamondback moth (residual activity on sprayed potted cabbages); details: dead larvae 2 days after feeding
Excerpt: Potted cabbages were sprayed with a diluted fluid of an emulsion of a compound of the general formula (1) [i.e., 10% Anniverse Emulsion (Compound No.1), 20% Trebon Emulsion (Compound No.2), an emulsion of Compound No.3, an emulsion of Compound No.4, or Shironen Emulsion (Compound No.5)], 0.6% Avermectin Emulsion or a mixture thereof to such an extent that the fluid dripped from their leaves. Subsequently, cabbage leaves were sampled at predetermined intervals and fed to second-instar larvae of the diamond-back moth. Then, the number of dead larvae was examined after 2 days from the feeding.

[7] = tested on: resistant strain (selected by Compound No.1) of the Kanzawa spider mite; experiment: Test 9: effect on a resistant strain (selected by Compound No.1) of the Kanzawa spider mite (LC50); details: eggs on kidney bean leaf sections sprayed, 25°C, eight days after the treatment
Description: as §1, with “removed,” for “removed, 4 ml each of”, “an emulsion of a compound of the general formula (1) [i.e., 20% Trebon” for “10% Anniverse”, “No.2), an emulsion of Compound No.3, an emulsion of Compound No.4, or Shironen Emulsion (Compound No.5)], 1% Milbenock” for “No.1), 0.6% Avermectin”, “Eight” for “Eleven”
as §2

[8] = compound of formula (1) alone 50 ppm, leaves sampled 2 days after treatment
[9] = compound of formula (1) alone 50 ppm, leaves sampled 7 days after treatment
[10] = compound of formula (1) alone 50 ppm, leaves sampled 14 days after treatment
[11] = compound of formula (1) alone 50 ppm, leaves sampled 21 days after treatment
[12] = compound of formula (1) alone 50 ppm, leaves sampled 28 days after treatment
[13] = compound of formula (1) alone 50 ppm, leaves sampled 35 days after treatment

Row | Compound | LC₅₀ value [2] | Death rate [6, 8] | Death rate [6, 9] | Death rate [6, 10] | Death rate [6, 11] | LC₅₀ value [7] | Death rate [6, 12] | Death rate [6, 13] | also measured
1 | CC(C)(COCc1cccc(Oc2ccccc2)c1)c1ccc(OC(F)(F)Br)cc1 [Compound No.1] | 11.5 ppm | – | – | – | – | – | – | – | LC₅₀ value [1]: 1.13 ppm; LC₅₀ value [3]: 11.5 ppm; LC₅₀ value [4]: 2000 ppm; Number of living mites (Kanzawa spider mite; 2 days after treatment): 0; Number of living mites (Kanzawa spider mite; 7 days after treatment): 0; Number of living mites (Kanzawa spider mite; 12 days after treatment): 0; Number of living mites (Kanzawa spider mite; 16 days after treatment): 27; Number of living mites (Kanzawa spider mite; 27 days after treatment): 102; LC₅₀ value [5]: 630 ppm; Corrected population density index (green peach aphid; 2 days after treatment): 0; Corrected population density index (green peach aphid; 7 days after treatment): 0.3; Corrected population density index (green peach aphid; 14 days after treatment): 2.5; Corrected population density index (green peach aphid; 21 days after treatment): 42.5; Corrected population density index (green peach aphid; 28 days after treatment): 96.5; Death rate ([6]; compound of formula (1) alone 25 ppm, leaves sampled 2 days after treatment): 90%; Death rate ([6]; compound of formula (1) alone 25 ppm, leaves sampled 7 days after treatment): 10%; Death rate ([6]; compound of formula (1) alone 25 ppm, leaves sampled 14 days after treatment): 0%; Death rate ([6]; compound of formula (1) alone 25 ppm, leaves sampled 21 days after treatment): 0%
2 | CCOc1ccc(C(C)(C)COCc2cccc(Oc3ccccc3)c2)cc1 [Compound No.2] | 162 ppm | 38% | 15% | 25% | 11% | 375 ppm | – | – | –
3 | CCOc1ccc(C(C)(C)CCCc2cccc(Oc3ccccc3)c2)cc1 [Compound No.3] | – | 70% | 45% | 15% | 40% | 519 ppm | 35% | 5% | –
4 | CCOc1ccc(C(C)(C)CCCc2ccc(F)c(Oc3ccccc3)c2)cc1 [Compound No.4] | – | 94% | 65% | 60% | 10% | 94 ppm | 0% | 0% | –
5 | CCOc1ccc([Si](C)(C)CCCc2ccc(F)c(Oc3ccccc3)c2)cc1 [Compound No.5] | – | 95% | 73% | 50% | 15% | 1150 ppm | 0% | 0% | –
